# In patent publication US11617741B1, “Method for inhibiting growth of bacteria” (priority 2021, dated 2023):
# Marks after values point to notes of the source that are not given here.
# Legend:
# [1] = test system: E. coli; assay: Minimum inhibitory and bactericidal concentration determination, Gram-negative control; format: cell-based, Escherichia coli
# Description: (§1) The 96-well plate was organized as follows. Media (100 μl) were added to all wells.
# [2] = test system: B. subtilis 168
# Description: Gentamicin on BHI agar was used as a control. In short, MRSA and B. subtilis were grown overnight in BHI, and 3-hour day cultures at the optical density of A620 of 0.1 were started for both organisms. The optical density after 3 hours of growth was measured; cultures were then pelleted and resuspended to give 10^11 CFU/ml by optical density. CFU of 10^11 per OD were plated in total; 100 μl of the cells were then plated on BHI agar containing either 128 μg/m1PKZ18 or 64 μg/m1PKZ18-22. Serial dilutions of the cells were plated on plain BHI agar in order to calculate the CFU/ml, which was calculated as the number of colonies found on the plates divided by the total number of bacteria plated. CFU means colony forming units, a measure of live bacteria.
# [3] = test system: ileS and tyrS T-boxes in WT MRSA
# Description: Sample preparation of RNA and cDNA. RNA extraction and cDNA preparation were conducted as previously reported. In short, guanidine thiocyanate (0.5 M final concentration)-treated and pelleted bacterial cultures were resuspended in TRIzol, lysed by beat beating with zirconia beads, and centrifuged.
# The solution was transferred to fresh tubes, and the RNA was extracted with chloroform. The RNA was then pelleted with 100% isopropanol and washed with ice-cold 70% ethanol, resuspended in Millipore water, DNase treated, and extracted with another isopropanol precipitation and ethanol wash. The resulting RNA was quantified using a NanoDrop 3300 (Thermo Fisher), and the quality was assessed by running 1 μg on a denaturing agarose gel. DNA contamination was tested for by PCR followed by agarose gel electrophoresis. cDNA was generated from 1 μg of high-quality RNA using the SuperScript III reverse transcriptase protocol for random primers (Thermo Fisher).
# Either 2-fold or 10-fold dilutions of cDNA were used, and amplification was monitored with Evagreen dye. The expression was normalized to either 23S (B. subtilis 1A5) or 16S (MRSA) and reported as percentage read-through of the T-boxes tested for, calculated using the threshold cycle (2^−ΔΔCT) method.
# [4] = test system: S. aureus N315 (MRSA); assay: Antibiotic resistance frequency (fluctuation assay); format: cell-based, Staphylococcus aureus; settings: MRSA plated on 64 μg/ml PKZ18-22 or 10 μg/ml gentamicin
# From the text: Gentamicin on BHI agar was used as a control.
# [5] = test system: S. aureus N315; assay: Checkerboard assay and FIC; format: cell-based, Staphylococcus aureus
# Description: S. aureus N315 cultures were prepared identically to MIC determination in BHI media. The co-MICs were determined using the checkerboard method. In short, antibiotics to be tested with PKZ18 analogs were diluted 2-fold top to bottom (A to G rows) in a 96-well plate, PKZ18 analogs were diluted 2-fold right to left (columns 11-2 of the 96-well plate), and column 12 was used for vector, media, and growth controls. Each drug was therefore tested by itself and with every dilution of the other drug.
# The synergistic and additive interactions were determined based on determined cutoffs using the equation
# [formula] where MICAB is the lowest possible concentration of both drugs combined where there is no growth, and MICA and MICB are the MIC values of the individual drugs. For a synergistic drug interaction, the fractional inhibitory concentration (FIC) should be below 0.5, additive or indifferent effects are considered in an FIC range of 0.5 to <4, and an FIC value above 4 is considered antagonistic.
# [6] = test system: S. aureus N315 (MRSA isolate); assay: Minimum inhibitory and bactericidal concentration determination; format: cell-based, Staphylococcus aureus
# Description: as §1
# [7] = test system: planktonic growth of Staphylococcus
# Description: An overnight culture of S. aureus (ATCC 29213) was diluted to 1×10^7 cells/mL in tryptic soy broth (TSB) supplemented with 10% human plasma (Innovative Research, Novi, Mich. USA) and added to the wells of an MBEC™-HTP Assay Biofilm Innoculator (Innovotech, Edmonton, AB, Canada). The plate was incubated overnight at 37° C. and shaken at 125 rpm. […] Control wells were without a COMPOUND OF Formula I. The treatment plate was incubated for 24 h at 37° C. after which the lid was removed, rinsed with PBS, and placed in a new 96-well plate containing TSB. The biofilm was removed from the assay lid into the recovery plate wells by sonication, a new plate cover was added, and the viability of the biofilm was determined after 24 h of incubation at 37° C. by reading the OD at 625 nm. Three independent experiments were conducted. Concentrations of interest were followed up with colony forming unit (CFU) recovery and scanning electron microscopy analysis. After conclusion of the MBEC assay, the minimum bactericidal concentration (MBC) was determined. The MBC is the lowest concentration of an antibacterial agent required to kill a particular bacterium. The peg lid from the MBEC assay was removed from the challenge plate and 20 μL of medium from each well of the challenge plate was removed and added to a new sterile 96-well plate filled with 180 μL TSB. […]
# [8] = test system: T-box controlled genes in MRSA; assay: RNA sequencing of MRSA grown in minimal media; format: cell-based, Staphylococcus aureus
# [9] = test system: glyQS T-box; assay: qRT-PCR transcriptional read-through of T-box-regulated glyQS (confirmation of inhibition of T-box mechanism); format: cell-based, Bacillus subtilis 1A5; settings: for T-Box targeting: confirmation of inhibition of T-box mechanism from qRT-PCR assay
# From the text: Sample preparation of RNA and cDNA.
# [10] = test system: S. aureus biofilm; assay: MBEC-HTP biofilm model, combinations, Bliss independence model and CFU recovery; format: cell-based, Staphylococcus aureus
# Description: This inherent resistance of bacteria in biofilms and the emergence of antibiotic-resistant bacteria has necessitated the drive to explore competent novel antimicrobial agents such as PKZ18 and the development of combinations of these novel antimicrobial agents with established antibiotics. We determined the minimum biofilm eradication concentration (MBEC) of compounds of Formula I in combination with vancomycin, gentamicin, rifampin, and tetracycline. Three independent experiments were conducted and required a checkerboard dilution to test various concentrations of the following combinations (compound of Formula I+each antibiotic) against S. aureus utilizing an established MBEC™-HTP biofilm model (Innovotech).
# Briefly, an overnight culture of S. aureus was diluted to 1×10^5 cells/mL in cation-adjusted Mueller Hinton broth (MHB) supplemented with 1% human plasma and added to the wells of an MBEC plate. […] After incubation, the lid was removed and rinsed in PBS. Following treatment, a tetrazolium (2,3,5-triphenyl tetrazolium chloride, TTC) assay was performed to assess metabolic activity and viability. The lid was rinsed in PBS, transferred to a 96-well plate containing a 0.01% TTC solution in MHB, and incubated at 37° C. overnight. To dissolve the stain from the pegs, the lid was placed in a 96-well plate containing 96% ethanol and the OD of the wells was then read at 490 nm. Data was analyzed with the Bliss independence model using the Combenefit software.
# After rinsing in PBS, designated pegs were snapped off the lid using sterile tweezers and placed in 1.5 mL Eppendorf tubes containing 200 μL PBS. Biofilm was disrupted from the pegs by sonicating the tubes for 15 min (Branson M8800H, Branson Ultrasonics, West Chester, Pa., USA), followed by vortexing for 10 s. Three independent serial dilutions were prepared for each sample and plated on tryptic soy agar (TSA) plates that were incubated overnight at 37° C. The plates were then imaged and colonies counted on a ColonyDoc-It™ Imaging station (UVP, Analytik Jena, Beverly, Mass., USA).
# [11] = test system: B. subtilis 168; assay: Minimum inhibitory concentration determination; format: cell-based, Bacillus subtilis
# Description: as §1
structure (smiles),measurement,setting,value
CC(C)Cc1ccc(-c2csc(NC(=O)C3C4CCC(C4)C3C(=O)O)n2)cc1 (centres unmarked) [PKZ18-22],MIC E. coli,[1],> 256 µg/mL
same,MBC E. coli,[1]; value in parentheses,> 256 µg/mL
same,resistant colonies,[2],did not generate resistant colonies
same,relative read-through of ileS and tyrS,"[3]; MRSA in minimal media, 4 μg/ml",decrease
same,read-through of ileS and tyrS,"[3]; MRSA in rich media, 8 μg/ml",reduced
same,resistance frequency,[4],5.6×10^−12
same,FIC of PKZ18-22 and gentamicin,"[5]; both rich and minimal media, WT MRSA",0.38
same,fold decrease in the MIC of PKZ18-22,[5]; in combination with gentamicin,4 fold
same,fractional inhibitory concentration FIC,[5]; with ampicillin,0.75
same,fractional inhibitory concentration FIC,[5]; with chloramphenicol,0.75
same,fractional inhibitory concentration FIC,[5]; with gentamicin,0.38
same,fractional inhibitory concentration FIC,[5]; with kanamycin A,0.38
same,fractional inhibitory concentration FIC,[5]; with neomycin B,0.38
same,fractional inhibitory concentration FIC,[5]; with streptomycin,0.75
same,bactericidal effect,[6]; MRSA,bactericidal
same,fold reduction in MIC in minimal compared to rich media,[6]; MRSA strain S. aureus N315,4 fold
same,MIC against S. aureus in minimal media,"[6]; S. aureus N315, minimal media",8^b μg/ml
same,MIC against S. aureus in rich media,"[6]; S. aureus N315, rich media",32^b μg/ml
same,MIC S. aureus N315,[6]; Table 2,32 µg/mL
same,MBC S. aureus N315,"[6]; Table 2, value in parentheses",64 µg/mL
same,planktonic growth over a range of concentrations,[7],killing curve
same,cysteine and histidine T-boxes (cysE-cysS and hisS-aspS operons),[8]; 4 and 8 μg/ml,inhibited only by the higher concentration
same,read-through of alaS,[8]; 4 and 8 μg/ml,not inhibited
same,read-through reduction of tyrS,[8]; 4 and 8 μg/ml,not statistically significant
same,overall change in gene expression,[8]; 4 and 8 μg/ml vs untreated,large overall change in expression
same,genes under T-box control (out of the 12) with reduced expression,[8]; 4 or 8 μg/ml PKZ18-22,8
same,"read-throughs of glyS, ileS, leuS, pheST, serS, thrS and valS","[8]; both concentrations (4 and 8 μg/ml), normalized to untreated",reduction
same,relative read-through of other riboswitch-controlled genes,[8]; non-T-box 5′UTR regulated genes,did not significantly change
same,inhibition of read-through compared with PKZ18,"[9]; 4 μg/ml of each drug, side by side in same biological replicate",significantly better than PKZ18
same,T-box-controlled expression of glyQS (termination of read-through),"[9]; B. subtilis 1A5, increasing concentrations, minimal media",inhibited
same,T-Box targeting,[9]; Table 1,Yes
same,T-Box targeting,[9]; Table 2,Yes
same,highest synergy score (Bliss),[10]; PKZ18-22 25 μg/mL and gentamicin 16 μg/mL and 64 μg/mL,87
same,log reduction in CFU/mL in biofilm growth,"[10]; PKZ18-22 25 μg/mL and gentamicin 64 μg/mL, 24 h exposure",~5 log
same,biofilm CFU reduction with rifampin combination,"[10]; PKZ18-22 25 μg/mL and rifampin 0.001 or 0.005 μg/mL, single dose 24 h",significantly greater reduction when compared to each treatment alone
same,maximal synergy score (Bliss),[10]; PKZ18-22 25 μg/mL and vancomycin 4 μg/mL,43
same,cell reduction,"[10]; combination of gentamicin/PKZ18-22, single dose 24 h challenge",> 99.9%
same,synergy with minocycline,[10]; single dose 24 h challenge,not synergistic
same,bactericidal effect,[11]; B. subtilis 168,bactericidal
same,MIC against B. subtilis 168 in minimal media,[11]; minimal media,4 µg/mL
same,MIC against B. subtilis 168 in rich media,[11]; rich media,16 µg/mL
